# Measured values reported in US12486267B2, “Imidazo[1,2-A]pyridine and [1,2,4]triazolo[1,5-A]pyridine derivatives as TLR9 inhibitors for the treatment of fibrosis” (BRISTOL-MYERS SQUIBB COMPANY, priority 2020, dated 2025).
# Key:
# Type in all cases: cell-based
# human TLR7 = target: T1, human TLR7 (Homo sapiens, UniProt Q9NYK1); test: TLR7 inhibition reporter assay (HEK-Blue cells, SEAP reporter); conditions: HEK-Blue cells overexpressing human TLR7; stimulated with gardiquimod 7.5 μM; 22 hour incubation; SEAP readout
# T1 sequence (Q9NYK1 27-1049): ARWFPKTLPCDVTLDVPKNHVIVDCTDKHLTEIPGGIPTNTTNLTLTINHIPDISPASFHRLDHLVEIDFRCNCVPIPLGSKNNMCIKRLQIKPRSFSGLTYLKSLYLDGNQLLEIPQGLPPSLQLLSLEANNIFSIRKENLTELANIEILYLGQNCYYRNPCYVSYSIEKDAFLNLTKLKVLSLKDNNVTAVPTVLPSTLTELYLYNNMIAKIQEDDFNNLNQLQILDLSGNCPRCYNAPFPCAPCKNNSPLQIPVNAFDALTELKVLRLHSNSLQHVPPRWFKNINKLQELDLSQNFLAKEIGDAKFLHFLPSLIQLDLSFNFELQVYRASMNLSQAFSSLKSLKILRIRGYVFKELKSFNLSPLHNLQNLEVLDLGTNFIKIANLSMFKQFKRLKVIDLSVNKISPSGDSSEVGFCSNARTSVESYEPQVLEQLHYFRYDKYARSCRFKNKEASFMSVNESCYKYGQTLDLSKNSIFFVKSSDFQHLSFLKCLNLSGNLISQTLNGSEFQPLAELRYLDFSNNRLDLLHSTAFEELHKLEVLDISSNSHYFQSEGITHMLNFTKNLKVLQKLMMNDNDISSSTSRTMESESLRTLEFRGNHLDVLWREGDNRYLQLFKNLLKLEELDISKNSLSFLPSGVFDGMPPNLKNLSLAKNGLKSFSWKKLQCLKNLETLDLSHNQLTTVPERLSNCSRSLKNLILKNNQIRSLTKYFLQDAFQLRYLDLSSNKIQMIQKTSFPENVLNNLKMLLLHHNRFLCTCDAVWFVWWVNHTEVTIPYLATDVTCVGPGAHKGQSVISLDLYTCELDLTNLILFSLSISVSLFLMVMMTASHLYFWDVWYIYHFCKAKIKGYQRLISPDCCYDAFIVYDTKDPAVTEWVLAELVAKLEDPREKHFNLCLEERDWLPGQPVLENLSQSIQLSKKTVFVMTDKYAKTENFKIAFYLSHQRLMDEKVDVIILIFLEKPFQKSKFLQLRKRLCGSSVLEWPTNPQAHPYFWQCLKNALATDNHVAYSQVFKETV
# Procedure, shortened: (§1)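 HEK-Blue cells with an NF-κB/AP-1-driven SEAP reporter were pre-treated 30 min at room temperature with compound (0.05 nM–50 μM), then stimulated with gardiquimod 7.5 μM (TLR7), R848 15.9 μM (TLR8) or ODN2006 5 nM (TLR9). After 22 h at 37 °C, SEAP was read; % inhibition was referenced to agonist+DMSO and known-inhibitor wells.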
# human TLR8 = target: T2, human TLR8 (Homo sapiens, UniProt Q9NR97); test: TLR8 inhibition reporter assay (HEK-Blue cells, SEAP reporter); conditions: HEK-Blue cells overexpressing human TLR8; stimulated with R848 15.9 μM; 22 hour incubation; SEAP readout
# T2 sequence (Q9NR97 27-1041): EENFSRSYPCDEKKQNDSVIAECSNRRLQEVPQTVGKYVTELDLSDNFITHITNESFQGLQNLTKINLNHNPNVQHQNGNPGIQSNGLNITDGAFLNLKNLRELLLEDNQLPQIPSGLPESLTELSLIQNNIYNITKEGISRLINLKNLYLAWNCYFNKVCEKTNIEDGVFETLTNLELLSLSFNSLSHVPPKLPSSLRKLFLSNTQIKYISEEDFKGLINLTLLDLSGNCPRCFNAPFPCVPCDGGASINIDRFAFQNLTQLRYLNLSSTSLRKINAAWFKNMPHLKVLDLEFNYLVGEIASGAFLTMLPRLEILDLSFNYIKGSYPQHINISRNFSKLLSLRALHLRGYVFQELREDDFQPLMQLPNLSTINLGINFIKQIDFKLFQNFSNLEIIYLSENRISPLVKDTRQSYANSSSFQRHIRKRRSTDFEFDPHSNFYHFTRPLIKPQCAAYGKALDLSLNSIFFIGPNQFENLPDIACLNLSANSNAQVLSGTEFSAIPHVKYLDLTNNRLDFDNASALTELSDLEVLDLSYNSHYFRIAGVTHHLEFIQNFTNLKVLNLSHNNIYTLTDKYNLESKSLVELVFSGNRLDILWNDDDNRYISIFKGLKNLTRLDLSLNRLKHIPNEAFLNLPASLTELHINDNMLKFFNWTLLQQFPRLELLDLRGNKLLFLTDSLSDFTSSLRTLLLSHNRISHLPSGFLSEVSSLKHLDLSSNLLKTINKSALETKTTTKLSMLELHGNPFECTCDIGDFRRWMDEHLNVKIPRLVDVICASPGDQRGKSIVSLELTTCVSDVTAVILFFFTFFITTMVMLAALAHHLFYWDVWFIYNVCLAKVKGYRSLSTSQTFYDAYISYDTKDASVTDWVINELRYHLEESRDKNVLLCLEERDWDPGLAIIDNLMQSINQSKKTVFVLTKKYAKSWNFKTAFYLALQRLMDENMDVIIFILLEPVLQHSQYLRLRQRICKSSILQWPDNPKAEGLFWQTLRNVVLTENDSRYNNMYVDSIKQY
# Procedure, shortened: as §1
# human TLR9 = target: T3, human TLR9 (Homo sapiens, UniProt Q9NR96); test: TLR9 inhibition reporter assay (HEK-Blue cells, SEAP reporter); conditions: HEK-Blue cells overexpressing human TLR9; stimulated with ODN2006 5 nM; 22 hour incubation; SEAP readout
# T3 sequence (Q9NR96 26-1032): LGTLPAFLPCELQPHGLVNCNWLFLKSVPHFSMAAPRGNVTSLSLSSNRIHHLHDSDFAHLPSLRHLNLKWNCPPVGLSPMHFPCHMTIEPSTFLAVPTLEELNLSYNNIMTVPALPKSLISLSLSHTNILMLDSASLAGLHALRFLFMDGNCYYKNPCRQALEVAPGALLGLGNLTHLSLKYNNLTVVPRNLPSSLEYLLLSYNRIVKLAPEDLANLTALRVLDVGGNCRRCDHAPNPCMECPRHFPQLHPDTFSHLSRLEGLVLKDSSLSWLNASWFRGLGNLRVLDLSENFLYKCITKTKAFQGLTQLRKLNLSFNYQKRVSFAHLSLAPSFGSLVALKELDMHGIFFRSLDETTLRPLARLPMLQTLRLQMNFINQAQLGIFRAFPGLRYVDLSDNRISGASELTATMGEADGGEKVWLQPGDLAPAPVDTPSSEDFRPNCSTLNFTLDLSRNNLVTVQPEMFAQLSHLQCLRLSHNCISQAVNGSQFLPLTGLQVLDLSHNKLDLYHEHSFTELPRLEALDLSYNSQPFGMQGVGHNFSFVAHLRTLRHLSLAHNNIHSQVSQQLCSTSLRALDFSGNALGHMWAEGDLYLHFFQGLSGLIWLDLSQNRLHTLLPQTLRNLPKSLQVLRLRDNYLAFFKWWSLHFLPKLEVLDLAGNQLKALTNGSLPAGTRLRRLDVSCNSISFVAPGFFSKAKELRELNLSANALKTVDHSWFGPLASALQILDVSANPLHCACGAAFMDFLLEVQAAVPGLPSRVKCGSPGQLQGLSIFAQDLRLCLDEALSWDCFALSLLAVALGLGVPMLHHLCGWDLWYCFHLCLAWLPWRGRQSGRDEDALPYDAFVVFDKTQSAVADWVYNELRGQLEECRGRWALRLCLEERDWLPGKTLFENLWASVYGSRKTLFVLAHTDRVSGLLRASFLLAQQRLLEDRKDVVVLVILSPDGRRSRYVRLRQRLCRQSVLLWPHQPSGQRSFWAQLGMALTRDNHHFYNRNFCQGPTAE
# Procedure, shortened: as §1
SMILES,IC50 (human TLR7) [µM],IC50 (human TLR8) [µM],IC50 (human TLR9) [µM]
"COc1ccc(-c2cn3c(n2)CCC(C2CCN(C4CCN(C(C)C)CC4)CC2)C3)cc1OC (single isomer, unassigned) [Example 35, 2-(3,4-dimethoxyphenyl)-6-(1′-isopropyl-[1,4′-bipiperidin]-4-yl)-5,6,7,8-tetrahydroimidazo[1,2-a]pyridine]",13,> 50,0.042
"Cc1cc(-c2ccc(N3CCN(C4COC4)CC3)cc2)cn2cc(-c3ccc(S(C)(=O)=O)cc3)nc12 [Example 103, 8-methyl-2-(4-(methylsulfonyl)phenyl)-6-(4-(4-(oxetan-3-yl)piperazin-1-yl)phenyl)imidazo[1,2-a]pyridine]",38.5,> 50,9.2
"COc1ccc(-c2cn3cc(-c4ccc(N5CCN(C6CCOCC6)CC5)cc4)cc(C)c3n2)cc1OC [Example 97, 2-(3,4-dimethoxyphenyl)-8-methyl-6-(4-(4-(tetrahydro-2H-pyran-4-yl)piperazin-1-yl)phenyl) imidazo[1,2-a]pyridine]",> 50,> 25,2.1
"COc1ccc(-c2cn3cc(-c4ccc(N5CCN(C6COC6)CC5)cc4)cc(C)c3n2)cc1OC [Example 64, 2-(3,4-dimethoxyphenyl)-8-methyl-6-(4-(4-(oxetan-3-yl)piperazin-1-yl)phenyl) imidazo[1,2-a]pyridine]",> 25,> 25,2.38
"CS(=O)(=O)c1ccc(-c2cn3cc(C4CCN(C5CCCN(C6CCOCC6)CC5)CC4)cc(F)c3n2)cc1 (single isomer, unassigned) [Example 130, 8-fluoro-2-(4-(methylsulfonyl)phenyl)-6-(1-(1-(tetrahydro-2H-pyran-4-yl)azepan-4-yl)piperidin-4-yl)imidazo[1,2-a]pyridine]",> 50,22.5,0.01
"COc1ccc(-c2cn3cc(C4CCN(C5CC6CCC(C5)N6CC5CC5)CC4)cc(C)c3n2)cc1OC (single isomer, unassigned) [Example 20, 6-(1-(8-(cyclopropylmethyl)-8-azabicyclo[3.2.1]octan-3-yl)piperidin-4-yl)-2-(3,4-dimethoxyphenyl)-8-methylimidazo[1,2-a]pyridine]",1.5,> 50,0.023
"CS(=O)(=O)c1ccc(-c2cn3ccc(C4CCN(C5CCN(C6CCOCC6)CC5)CC4)c(F)c3n2)cc1 [Example 133, 8-fluoro-2-(4-(methylsulfonyl)phenyl)-7-(1′-(tetrahydro-2H-pyran-4-yl)-[1,4′-bipiperidin]-4-yl)imidazo[1,2-a]pyridine]",1.9,> 50,0.006
"Cc1cc(C2CCN(C3CCN(C(C)C)CC3)CC2)cn2nc(-c3ccc(S(C)(=O)=O)cc3)nc12 [Example 162, 6-(1′-isopropyl-[1,4′-bipiperidin]-4-yl)-8-methyl-2-(4-(methylsulfonyl)phenyl)-[1,2,4]triazolo[1,5-a]pyridine]",6.9,> 50,0.079

# Other lines, results leading:
IC50 (human TLR7) [µM],IC50 (human TLR8) [µM],IC50 (human TLR9) [µM],SMILES
> 50,> 50,0.381,"CS(=O)(=O)c1ccc(-c2cn3c(n2)CC[C@H](C2CCN(C4CC5CCC(C4)N5CC4CC4)CC2)C3)cc1 (single isomer, unassigned) [Example 138]"
15.8,> 50,0.023,"CS(=O)(=O)c1ccc(-c2cn3c(n2)CC[C@@H](C2CCN(C4CC5CCC(C4)N5CC4CC4)CC2)C3)cc1 (single isomer, unassigned) [Example 141]"
15.2,> 25,0.078,"COc1ccc(-c2cn3c(n2)CC[C@@H](C2CCN(C4CC5CCC(C4)N5C(C)C)CC2)C3)cc1OC (single isomer, unassigned) [Example 136]"
9.2,> 50,0.021,"CC(C)CN1C2CCC1CC(N1CCC([C@@H]3CCc4nc(-c5ccc(S(C)(=O)=O)cc5)cn4C3)CC1)C2 (single isomer, unassigned) [Example 82]"
1.3,27,0.0078,"CS(=O)(=O)c1ccc(-c2cn3cc(C4CCN(C5CC6CCC(C5)N6C5CCOCC5)CC4)cc(F)c3n2)cc1 (single isomer, unassigned) [Example 122, 8-fluoro-2-(4-(methylsulfonyl)phenyl)-6-(1-(8-(tetrahydro-2H-pyran-4-yl)-8-azabicyclo[3.2.1]octan-3-yl)piperidin-4-yl) imidazo[1,2-a]pyridine]"
3.1,> 50,0.056,"COc1ccc(-c2cn3c(n2)CCC(C2CCN(C4CCN(CC(C)C)CC4)CC2)C3)cc1OC (single isomer, unassigned) [Example 33, 2-(3,4-dimethoxyphenyl)-6-(1′-isobutyl-[1,4′-bipiperidin]-4-yl)-5,6,7,8-tetrahydroimidazo[1,2-a]pyridine]"
